Experimental data as given in US10602743B2, “Method of inducing drought/salt tolerance using Bacillus megaterium” (Marrone Bio Innovations, Inc., priority 2012, dated 2020).

Columns and labels:
[1] = system: Bacillus megaterium strain H491; assay: Chemical sensitivity, Biolog Phenotypic Microarray; format: cell-based; settings: Biolog Phenotypic Microarray; for Resistance of H491 observed in wells containing compound: at a maximum concentration of 4 ug; for H491 susceptible to compound: 25° C.
[2] = system: Bacillus megaterium M018; assay: Antibiotic susceptibility, antibiotic disks on Muller-Hinton medium; format: cell-based; set-up: key: +++ (very); ++ (somewhat); + (marginally); resistance is indicated by (−); settings: antibiotic disk, 48-hour incubation at 25° C.
Description: (§1) Antibiotic susceptibility of Bacillus megaterium strains H491, J142 and M018 was tested using antibiotic disks on Muller-Hinton medium as described in PML Microbiological's technical data sheet #535.

[3] = system: Bacillus megaterium J142; assay: as above; format: cell-based; set-up: key: +++ (very); ++ (somewhat); + (marginally); resistance is indicated by (−); settings: antibiotic disk, 48-hour incubation at 25° C.
Description: as §1

[4] = system: Bacillus megaterium H491; assay: as above; format: cell-based; set-up: key: +++ (very); ++ (somewhat); + (marginally); resistance is indicated by (−); settings: antibiotic disk, 48-hour incubation at 25° C.
Description: as §1

[5] = system: Vero cells; settings: cited from earlier work

Molecule | Susceptibility degree of M018 [2] | Susceptibility degree of J142 [3] | Susceptibility degree of H491 [4] | H491 susceptible to compound [1] | also measured
CC1(C)S[C@@H]2[C@H](NC(=O)[C@H](N)c3ccccc3)C(=O)N2[C@H]1C(=O)O [Ampicillin] | ++ | +++ | +++ |  | Resistance of H491 observed in wells containing compound [1]: Resistance
CO/N=C(\C(=O)N[C@@H]1C(=O)N2C(C(=O)O)=C(COC(N)=O)CS[C@H]12)c1ccco1 [Cefuroxime] | +++ | +++ | +++ | susceptible | 
O=C(N[C@H](CO)[C@H](O)c1ccc([N+](=O)[O-])cc1)C(Cl)Cl [Chloramphenicol] | ++ | +++ | +++ |  | 
O=C(O)c1cn(C2CC2)c2cc(N3CCNCC3)c(F)cc2c1=O [Ciprofloxacin] | +++ | +++ | +++ |  | 
CC[C@H]1OC(=O)[C@H](C)[C@@H](O[C@H]2C[C@@](C)(OC)[C@@H](O)[C@H](C)O2)[C@H](C)[C@@H](O[C@@H]2O[C@H](C)C[C@H](N(C)C)[C@H]2O)[C@](C)(O)C[C@@H](C)C(=O)[C@H](C)[C@@H](O)[C@]1(C)O [Erythromycin] | +++ | +++ | +++ | susceptible | 
C[C@@H](O)[C@H]1C(=O)N2C(C(=O)O)=C(SCCN=CN)C[C@H]12 [Imipenem] | +++ | +++ | +++ |  | 
NC[C@H]1O[C@H](O[C@H]2[C@H](O)[C@@H](O[C@H]3O[C@H](CO)[C@@H](O)[C@H](N)[C@H]3O)[C@H](N)C[C@@H]2N)[C@H](O)[C@@H](O)[C@@H]1O [Kanamycin] | +++ | +++ | +++ |  | 
Nc1ncnc2c1ncn2[C@@H]1O[C@H](CO)[C@H]1CO [Oxetanocin, 9-[(2R,3R,4S)-3,4-bis(hydroxymethyl)-2-oxetanyl]adenine] |  |  |  |  | Cytotoxicity against Vero cells (50% inhibition of cell growth) [5]: 132.6 μg/well
CN(C)[C@@H]1C(O)=C(C(N)=O)C(=O)[C@@]2(O)C(O)=C3C(=O)c4c(O)cccc4[C@@](C)(O)[C@H]3[C@H](O)[C@@H]12 [Oxytetracycline] | +++ | +++ | +++ |  | 
CCN1CCN(C(=O)N[C@@H](C(=O)N[C@@H]2C(=O)N3[C@@H]2SC(C)(C)[C@@H]3C(=O)O)c2ccccc2)C(=O)C1=O [Piperacillin] | ++ | + | +++ |  | 
[H]/N=C(/N)N[C@H]1[C@H](O)[C@@H](O)[C@H](O[C@@H]2O[C@@H](C)[C@](O)(C=O)[C@H]2O[C@@H]2O[C@@H](CO)[C@H](O)[C@@H](O)[C@@H]2NC)[C@@H](N/C(N)=N\[H])[C@@H]1O [Streptomycin] | + | +++ | +++ | susceptible | 
CN(C)[C@@H]1C(O)=C(C(N)=O)C(=O)[C@@]2(O)C(O)=C3C(=O)c4c(O)cccc4[C@@](C)(O)[C@H]3C[C@@H]12 [Tetracycline] | +++ | +++ | +++ |  | 
CCn1cc(C(=O)O)c(=O)c2cc3c(cc21)OCO3 [oxolinic acid] |  |  |  |  | Resistance of H491 observed in wells containing compound [1]: Resistance
CN[C@@H]1[C@H](O)[C@H](NC)[C@H]2O[C@@]3(O)C(=O)C[C@@H](C)O[C@H]3O[C@@H]2[C@H]1O [spectinomycin] |  |  |  |  | Resistance of H491 observed in wells containing compound [1]: Resistance
Cc1cc(C)nc(NS(=O)(=O)c2ccc(N)cc2)n1 [sulfamethazine] |  |  |  |  | Resistance of H491 observed in wells containing compound [1]: Resistance
O=C(O)/C=C/c1ccccc1 [trans-Cinnamic acid] |  |  |  | susceptible | 

Molecule | Susceptibility degree of M018 [2] | Susceptibility degree of J142 [3] | Susceptibility degree of H491 [4] | H491 susceptible to compound [1] | also measured
Acriflavine |  |  |  | susceptible | 
Capreomycin |  |  |  | susceptible | 
Gentamicin | +++ | +++ | +++ |  | Resistance of H491 observed in wells containing compound [1]: Resistance
Neomycin |  |  |  | susceptible | 
Niaproof |  |  |  | susceptible | 
Penicillin | ++ | − | +++ |  | 
Penimepicycline |  |  |  | susceptible | 
Phleomycin |  |  |  | susceptible | 
Poly-L-lysine |  |  |  | susceptible | 
Polymyxin B |  |  |  | susceptible | Resistance of H491 observed in wells containing compound [1]: Resistance
Protamine sulfate |  |  |  | susceptible | 
Sodium metavanadate |  |  |  | susceptible | 
Spiramycin |  |  |  | susceptible | 
bleomycin |  |  |  |  | Resistance of H491 observed in wells containing compound [1]: Resistance
colistin |  |  |  |  | Resistance of H491 observed in wells containing compound [1]: Resistance
